Experimental data published in patent US5391540A, “Substituted pyridine compounds” (Rohm and Haas Company, priority 1993, dated 1995).

Tests used:
Format in all cases: in vivo
Annual Bluegrass = test: Pre-emergent herbicidal activity (Table A); settings: pre-emergence, Anbg, 11.2 kg/ha, 10-14 days, read-out: herbicidal rating (% inhibition)
Procedure, shortened: (§1)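 Seeds were sown on compacted topsoil and covered with soil into which test compound (in acetone or water carrier) had been mixed at 11.2 kg/ha. Pans were kept watered on a greenhouse bench, and percent inhibition was scored as a rating about 10-14 days (usually 11) after treatment.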

Indian Mustard = test: Pre-emergent herbicidal activity (Table A); settings: Brassica juncea, pre-emergence, Inmu, 11.2 kg/ha, 10-14 days, read-out: herbicidal rating (% inhibition)
Procedure, shortened: as §1

Seedling Johnsongrass = test: Pre-emergent herbicidal activity (Table A); settings: Sorghum halepense, pre-emergence, Sejg, 11.2 kg/ha, 10-14 days, read-out: herbicidal rating (% inhibition)
Procedure, shortened: as §1

Wild Buckwheat = test: Pre-emergent herbicidal activity (Table A); settings: Fallopia convolvulus, pre-emergence, Wibw, 11.2 kg/ha, 10-14 days, read-out: herbicidal rating (% inhibition)
Procedure, shortened: as §1

Hese = test: plant injury after spraying emerged plants (Table D); set-up: scale not given here
Procedure, shortened: (§2)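 Seeds or vegetative propagules of annual and perennial species were pressed into steam-sterilized silt loam, covered with 1.27 cm of topsoil/peat-moss/vermiculite mix, and grown on greenhouse benches with subirrigation. Injury was scored on emerged plants after spraying.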

Vele = test: as above; set-up: scale not given here
Procedure, shortened: as §2

Wibw = test: as above; set-up: scale not given here
Procedure, shortened: as §2

Cotz = test: as above; set-up: scale not given here
Excerpt: (§3) Topsoil (silt loam) is sieved through a screen having 1.27 cm openings. In some of the tests the soil was mixed with fertilizer (1225 g/cu. m of 12/5/9 containing isobutylidene diurea), while in other tests the fertilizer was omitted. This mixture is steam sterilized and then placed in aluminum pans 6.985 cm deep having ten holes in the bottom each 0.635 cm in diameter. The soil mixture is compacted to a depth of 1.27 cm. from the top of the pan. A predetermined number of seeds of each of several dicotyledonous and monocotyledonous annual plant species and/or vegetative propagules for the perennial plant species are placed on the soil and pressed into the soil surface. The seeds and/or vegetative propagules are covered with 1.27 cm of a mixture of 50% topsoil and 50% of a mixture of Canadian sphagnum peat moss, vermiculite and a wetting agent. The pans are then placed on a capillary mat on a greenhouse bench and subirrigated as needed. After the plants reach the desired stage (9 to 14 days, 1 to 3 true leaf stage), each pan (except the control pans) is removed to a spraying chamber and sprayed by means of an atomizer, operating at a spray pressure of 170.3 kPa ([…]) at the application rates noted in Table D. In the spray solution is an amount of an emulsifying agent mixture (35% butylamine salt of dodecylbenzenesulfonic acid and 65% tall oil condensed with ethylene oxide in the ratio of 11 mols of ethylene oxide/mol of tall oil) to give a spray solution or suspension. The spray solution or suspension contains a sufficient amount of the candidate chemical in order to give application rates of the active ingredient corresponding to those shown in Table D below while applying a total amount of solution or suspension equivalent to 1870 L/Ha (200 gallons/acre). The pans are returned to the greenhouse and watered as before and the injury to the plants as compared to the control pans is observed at approximately 10-14 days (usually 11 days).
(§4) In the following Table D the legends used to identify the plant species are the same as those used in the preceding Table B.

Jiwe = test: as above; set-up: scale not given here
Excerpt: as §3, §4

Rape = test: as above; set-up: scale not given here
Excerpt: as §3, §4

Dobr = test: as above
Excerpt: as §3, §4

`COC(=O)c1c(OC)nc(C(F)(F)F)c(-c2nnc(C)o2)c1CC(C)C` [Compound 103, 3-pyridinecarboxylic acid, 2-methoxy-5-(5-methy1-1,3,4-oxadiazo1-2-yl)-4-(2-methylpropyl)-6-(trifluoromethyl)-, methyl ester] was tested, and the inhibition at 11200 g/ha (Annual Bluegrass) was 75 to 100%, the inhibition at 11200 g/ha (Indian Mustard) was 75 to 100% and the inhibition at 11200 g/ha (Seedling Johnsongrass) was 75 to 100%. For the same compound, the inhibition at 11200 g/ha (Wild Buckwheat) was 75 to 100%, the “plant injury rating, Hese” value (Hese; 0.0701 kg/ha) was 0 and the “plant injury rating, Hese” value (Hese; 0.2803 kg/ha) was 0. For the same compound, the “plant injury rating, Hese” value (Hese; 1.1219 kg/ha) was 1, the “plant injury rating, Hese” value (Hese; 5.6050 kg/ha) was 3 and the “plant injury rating, Vele” value (Vele; 0.0701 kg/ha) was 0. For the same compound, the “plant injury rating, Vele” value (Vele; 0.2803 kg/ha) was 0, the “plant injury rating, Vele” value (Vele; 1.1219 kg/ha) was 0 and the “plant injury rating, Vele” value (Vele; 5.6050 kg/ha) was 2. The “plant injury rating, Wibw” value (Wibw; 0.0701 kg/ha) was 0, the “plant injury rating, Wibw” value (Wibw; 0.2803 kg/ha) was 0 and the “plant injury rating, Wibw” value (Wibw; 1.1219 kg/ha) was 1. For the same compound, the “plant injury rating, Wibw” value (Wibw; 5.6050 kg/ha) was 2, the “plant injury rating, Cotz” value (Cotz; 0.0701 kg/ha) was 0 and the “plant injury rating, Cotz” value (Cotz; 0.2803 kg/ha) was 0. The “plant injury rating, Cotz” value (Cotz; 1.1219 kg/ha) was 0, the “plant injury rating, Cotz” value (Cotz; 5.6050 kg/ha) was 0 and the “plant injury rating, Jiwe” value (Jiwe; 0.0701 kg/ha) was 0. For the same compound, the “plant injury rating, Jiwe” value (Jiwe; 0.2803 kg/ha) was 0, the “plant injury rating, Jiwe” value (Jiwe; 1.1219 kg/ha) was 2 and the “plant injury rating, Jiwe” value (Jiwe; 5.6050 kg/ha) was 2. For the same compound, the “plant injury rating, Rape” value (Rape; 0.0701 kg/ha) was 0, the “plant injury rating, Rape” value (Rape; 0.2803 kg/ha) was 0 and the “plant injury rating, Rape” value (Rape; 1.1219 kg/ha) was 1. For the same compound, the “plant injury rating, Rape” value (Rape; 5.6050 kg/ha) was 3, the “plant injury rating, Dobr” value (Dobr; 0.0701 kg/ha) was 0 and the “plant injury rating, Dobr” value (Dobr; 0.2803 kg/ha) was 0. The “plant injury rating, Dobr” value (Dobr; 1.1219 kg/ha) was 0 and the “plant injury rating, Dobr” value (Dobr; 5.6050 kg/ha) was 0.
